Measurements: BigSolDB 2.1

O=C(c1ccc(F)cc1)c1ccc(F)cc1
solubility (mole fraction)
Settings | in acetone | in acetonitrile | in ethanol | in ethyl acetate | in isobutanol | in isopropanol | in methanol | in methyl acetate | in n-butanol | in n-propanol
293.15 K | 0.0915 | 0.03 | 0.0084 | 0.101 | 0.0097 | 0.0079 | 0.0062 | 0.0956 | 0.011 | 0.0103
298.15 K | 0.107 | 0.0386 | 0.0104 | 0.117 | 0.0125 | 0.0101 | 0.0076 | 0.112 | 0.014 | 0.0127
303.15 K | 0.126 | 0.0491 | 0.0129 | 0.134 | 0.0158 | 0.0131 | 0.0093 | 0.131 | 0.0177 | 0.0159
308.15 K | 0.147 | 0.0631 | 0.016 | 0.155 | 0.02 | 0.017 | 0.0114 | 0.152 | 0.0225 | 0.0197
313.15 K | 0.172 | 0.08 | 0.0197 | 0.177 | 0.0255 | 0.0217 | 0.0138 | 0.177 | 0.0282 | 0.0246
318.15 K | 0.199 | 0.101 | 0.0242 | 0.203 | 0.0322 | 0.0276 | 0.0168 | 0.205 | 0.0354 | 0.0305
323.15 K | 0.231 | 0.126 | 0.0297 | 0.231 | 0.0407 | 0.0352 | 0.0204 | 0.238 | 0.0444 | 0.0378
328.15 K | 0.266 | 0.158 | 0.0364 | 0.264 | 0.0511 | 0.0445 | 0.0245 | 0.274 | 0.0555 | 0.0467
333.15 K | 0.308 | 0.197 | 0.0447 | 0.299 | 0.0643 | 0.056 | 0.0297 | 0.316 | 0.0691 | 0.0576
